# Data published in paper PMC10313052, “Filarial DAF-12 sense the host serum to resume iL3 development during infection” (PLOS Pathogens, 2023).
# Target: T1, BmaDAF-12 (Brugia malayi, UniProt A0A4E9F2L4, R841H)
# T1 sequence (A0A4E9F2L4 639-880 R841H): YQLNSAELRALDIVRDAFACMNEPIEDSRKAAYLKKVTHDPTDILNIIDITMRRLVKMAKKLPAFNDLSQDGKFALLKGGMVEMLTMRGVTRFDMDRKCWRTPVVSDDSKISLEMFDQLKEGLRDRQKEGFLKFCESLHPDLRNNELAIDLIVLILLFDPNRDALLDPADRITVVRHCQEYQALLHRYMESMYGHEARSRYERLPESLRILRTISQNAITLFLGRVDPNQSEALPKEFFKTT
# Assay: cell-based
smiles,measurement,value
"CC(CCCC(C)C1CCC2C3=CCC4CC(=O)CCC4(C)C3CCC21C)C(=O)O [Δ7-dafachronic acid, (25S)-Δ7-dafachronic acid]",EC50,1.8 nM
